Measurements published in patent US9642831B2, “Substituted chromanes and method of use” (AbbVie S.á.r.l., priority 2014, dated 2017).

Molecular target: F508delCFTR (Homo sapiens, UniProt P13569, DEL508-508)
Experiment: Cell Surface Expression-Horse Radish Peroxidase (CSE-HRP) assay
Type: cell-based
Design: expressed in transfected cells; host or cells: CFBE41o- human lung derived epithelial cell line, doxycycline-inducible
Details: CFBE4lo-F508delCFTR-HRP cells; for EC50: 18-24 hours at 33° C., 8-point curve, highest concentration 20 μM, luminescence readout; for Emax: maximum % activity at any tested concentration, normalized to on-plate positive control (3 μM Example 1)
Procedure, shortened: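 Following 18-24 h compound exposure at 33° C. Expression was doxycycline-induced beforehand. % activity versus DMSO and a 3 μM corrector control gave maximum activity and EC50 from a variable-Hill sigmoidal fit.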

Chain of F508delCFTR (P13569 with tags, fused parts or gaps DEL508-508): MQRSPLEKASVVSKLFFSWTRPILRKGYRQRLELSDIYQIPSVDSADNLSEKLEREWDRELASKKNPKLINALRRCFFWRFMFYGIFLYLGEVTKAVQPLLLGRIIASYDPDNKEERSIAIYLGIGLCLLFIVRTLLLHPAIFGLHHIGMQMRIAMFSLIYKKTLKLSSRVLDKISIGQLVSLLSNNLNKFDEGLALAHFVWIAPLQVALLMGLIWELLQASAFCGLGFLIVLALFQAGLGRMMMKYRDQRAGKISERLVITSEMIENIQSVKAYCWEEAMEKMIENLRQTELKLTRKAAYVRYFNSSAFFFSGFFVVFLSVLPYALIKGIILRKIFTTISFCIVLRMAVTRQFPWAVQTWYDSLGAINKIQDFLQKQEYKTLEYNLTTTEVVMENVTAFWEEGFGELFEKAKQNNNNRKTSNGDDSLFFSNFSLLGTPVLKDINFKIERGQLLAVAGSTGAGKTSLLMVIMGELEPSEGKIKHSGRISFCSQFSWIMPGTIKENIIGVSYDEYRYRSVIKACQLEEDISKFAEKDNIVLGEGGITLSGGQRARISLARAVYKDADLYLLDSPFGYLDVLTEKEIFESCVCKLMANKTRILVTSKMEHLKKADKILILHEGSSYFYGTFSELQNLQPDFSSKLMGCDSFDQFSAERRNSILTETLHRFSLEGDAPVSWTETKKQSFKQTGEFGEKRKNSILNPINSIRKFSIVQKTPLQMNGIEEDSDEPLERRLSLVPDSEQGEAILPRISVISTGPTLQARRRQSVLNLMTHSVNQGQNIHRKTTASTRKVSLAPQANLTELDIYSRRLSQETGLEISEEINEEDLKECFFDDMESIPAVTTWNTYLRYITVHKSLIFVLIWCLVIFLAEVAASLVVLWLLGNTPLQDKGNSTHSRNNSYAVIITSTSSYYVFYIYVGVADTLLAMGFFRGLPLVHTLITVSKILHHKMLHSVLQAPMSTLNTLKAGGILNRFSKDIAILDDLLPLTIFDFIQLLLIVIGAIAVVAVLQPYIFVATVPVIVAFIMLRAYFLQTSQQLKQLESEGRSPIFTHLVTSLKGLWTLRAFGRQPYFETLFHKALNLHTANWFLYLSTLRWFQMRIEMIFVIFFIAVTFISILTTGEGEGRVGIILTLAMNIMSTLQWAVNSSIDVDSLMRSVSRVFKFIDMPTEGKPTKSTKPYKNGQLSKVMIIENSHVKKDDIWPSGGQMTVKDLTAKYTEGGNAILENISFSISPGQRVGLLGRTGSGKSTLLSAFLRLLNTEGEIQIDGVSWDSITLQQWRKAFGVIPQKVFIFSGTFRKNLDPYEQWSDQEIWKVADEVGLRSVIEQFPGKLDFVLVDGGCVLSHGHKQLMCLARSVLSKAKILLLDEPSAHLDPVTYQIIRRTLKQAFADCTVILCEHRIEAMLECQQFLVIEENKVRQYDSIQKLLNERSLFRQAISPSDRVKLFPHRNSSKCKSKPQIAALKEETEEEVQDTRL

SMILES	EC50 [nM]	Emax [%]
COc1ccc2c(c1)O[C@@H](C(=O)N(C)CC(O)c1ccccc1)C[C@@H]2NC(=O)C1(c2ccc3c(c2)OC(F)(F)O3)CC1 (mixture of isomers) [Example 185, rac-(2R,4S)-4-({[1-(2,2-difluoro-1,3-benzodioxol-5-yl)cyclopropyl]carbonyl}amino)-N-(2-hydroxy-2-phenylethyl)-7-methoxy-N-methyl-3,4-dihydro-2H-chromene-2-carboxamide]	640	77
COc1ccc2c(c1)O[C@@H](C(=O)N1CCC(O)CC1)C[C@@H]2NC(=O)C1(c2ccc3c(c2)OC(F)(F)O3)CC1 (racemic) [Example 186, rac-1-(2,2-difluoro-1,3-benzodioxol-5-yl)-N-{(2R,4S)-2-[(4-hydroxypiperidin-1-yl)carbonyl]-7-methoxy-3,4-dihydro-2H-chromen-4-yl}cyclopropanecarboxamide]	1360	66
COc1ccc2c(c1)O[C@@H](C(=O)N1CCN(CCO)CC1)C[C@@H]2NC(=O)C1(c2ccc3c(c2)OC(F)(F)O3)CC1 (racemic) [Example 187, rac-1-(2,2-difluoro-1,3-benzodioxol-5-yl)-N-[(2R,4S)-2-{[4-(2-hydroxyethyl)piperazin-1-yl]carbonyl}-7-methoxy-3,4-dihydro-2H-chromen-4-yl]cyclopropanecarboxamide]	1950	76
COc1ccc2c(c1)O[C@@H](C(=O)NCC(C)(C)O)C[C@@H]2NC(=O)C1(c2ccc3c(c2)OC(F)(F)O3)CC1 (racemic) [Example 188, rac-(2R,4S)-4-({[1-(2,2-difluoro-1,3-benzodioxol-5-yl)cyclopropyl]carbonyl}amino)-N-(2-hydroxy-2-methylpropyl)-7-methoxy-3,4-dihydro-2H-chromene-2-carboxamide]	4650	43
COc1ccc2c(c1)O[C@@H](C(=O)NC(C)(C)CO)C[C@@H]2NC(=O)C1(c2ccc3c(c2)OC(F)(F)O3)CC1 (racemic) [Example 189, rac-(2R,4S)-4-({[1-(2,2-difluoro-1,3-benzodioxol-5-yl)cyclopropyl]carbonyl}amino)-N-(1-hydroxy-2-methylpropan-2-yl)-7-methoxy-3,4-dihydro-2H-chromene-2-carboxamide]	3830	58
COc1ccc2c(c1)O[C@@H](C(=O)NC1CCS(=O)(=O)CC1)C[C@@H]2NC(=O)C1(c2ccc3c(c2)OC(F)(F)O3)CC1 (racemic) [Example 191, rac-(2R,4S)-4-({[1-(2,2-difluoro-1,3-benzodioxol-5-yl)cyclopropyl]carbonyl}amino)-N-(1,1-dioxidotetrahydro-2H-thiopyran-4-yl)-7-methoxy-3,4-dihydro-2H-chromene-2-carboxamide]	4100	51
COc1ccc2c(c1)O[C@@H](C(=O)NC1(C(F)(F)F)COC1)C[C@@H]2NC(=O)C1(c2ccc3c(c2)OC(F)(F)O3)CC1 (racemic) [Example 192, rac-(2R,4S)-4-({[1-(2,2-difluoro-1,3-benzodioxol-5-yl)cyclopropyl]carbonyl}amino)-7-methoxy-N-[3-(trifluoromethyl)oxetan-3-yl]-3,4-dihydro-2H-chromene-2-carboxamide]	4400	29
COc1ccc2c(c1)O[C@@H](C(=O)N1CCC(F)(F)CC1)C[C@@H]2NC(=O)C1(c2ccc3c(c2)OC(F)(F)O3)CC1 (racemic) [Example 193, rac-1-(2,2-difluoro-1,3-benzodioxol-5-yl)-N-{(2R,4S)-2-[(4,4-difluoropiperidin-1-yl)carbonyl]-7-methoxy-3,4-dihydro-2H-chromen-4-yl}cyclopropanecarboxamide]	470	68
COc1ccc2c(c1)O[C@@H](C(=O)NCCc1cccc(O)c1)C[C@@H]2NC(=O)C1(c2ccc3c(c2)OC(F)(F)O3)CC1 (racemic) [Example 198, rac-(2R,4S)-4-({[1-(2,2-difluoro-1,3-benzodioxol-5-yl)cyclopropyl]carbonyl}amino)-N-[2-(3-hydroxyphenyl)ethyl]-7-methoxy-3,4-dihydro-2H-chromene-2-carboxamide]	1710	67
COc1ccc2c(c1)O[C@@H](C(=O)NC(CO)CO)C[C@@H]2NC(=O)C1(c2ccc3c(c2)OC(F)(F)O3)CC1 (racemic) [Example 199, rac-(2R,4S)-4-({[1-(2,2-difluoro-1,3-benzodioxol-5-yl)cyclopropyl]carbonyl}amino)-N-(1,3-dihydroxypropan-2-yl)-7-methoxy-3,4-dihydro-2H-chromene-2-carboxamide]	6890	27
COc1ccc2c(c1)O[C@@H](C(=O)N1CCC(C(=O)O)C1)C[C@@H]2NC(=O)C1(c2ccc3c(c2)OC(F)(F)O3)CC1 (mixture of isomers) [Example 201, rac-1-{[(2R,4S)-4-({[1-(2,2-difluoro-1,3-benzodioxol-5-yl)cyclopropyl]carbonyl}amino)-7-methoxy-3,4-dihydro-2H-chromen-2-yl]carbonyl}pyrrolidine-3-carboxylic acid]	7920	35

Second part, the compound after the results:

EC50 [nM]	Emax [%]	SMILES
860	67	CCCN(CCO)C(=O)[C@H]1C[C@H](NC(=O)C2(c3ccc4c(c3)OC(F)(F)O4)CC2)c2ccc(OC)cc2O1 (racemic) [Example 183, rac-(2R,4S)-4-({[1-(2,2-difluoro-1,3-benzodioxol-5-yl)cyclopropyl]carbonyl}amino)-N-(2-hydroxyethyl)-7-methoxy-N-propyl-3,4-dihydro-2H-chromene-2-carboxamide]
580	73	COc1ccc2c(c1)O[C@@H](C(=O)N(CCO)Cc1ccccc1)C[C@@H]2NC(=O)C1(c2ccc3c(c2)OC(F)(F)O3)CC1 (racemic) [Example 184, rac-(2R,4S)—N-benzyl-4-({[1-(2,2-difluoro-1,3-benzodioxol-5-yl)cyclopropyl]carbonyl}amino)-N-(2-hydroxyethyl)-7-methoxy-3,4-dihydro-2H-chromene-2-carboxamide]
2790	39	COc1ccc2c(c1)O[C@@H](C(=O)NC(CO)c1ccccc1)C[C@@H]2NC(=O)C1(c2ccc3c(c2)OC(F)(F)O3)CC1 (mixture of isomers) [Example 190, rac-(2R,4S)-4-({[1-(2,2-difluoro-1,3-benzodioxol-5-yl)cyclopropyl]carbonyl}amino)-N-(2-hydroxy-1-phenylethyl)-7-methoxy-3,4-dihydro-2H-chromene-2-carboxamide]
880	68	COc1ccc2c(c1)O[C@@H](C(=O)N1CCCOCC1)C[C@@H]2NC(=O)C1(c2ccc3c(c2)OC(F)(F)O3)CC1 (racemic) [Example 194, rac-1-(2,2-difluoro-1,3-benzodioxol-5-yl)-N-[(2R,4S)-7-methoxy-2-(1,4-oxazepan-4-ylcarbonyl)-3,4-dihydro-2H-chromen-4-yl]cyclopropanecarboxamide]
7530	37	COc1ccc2c(c1)O[C@@H](C(=O)N(C)C1COC1)C[C@@H]2NC(=O)C1(c2ccc3c(c2)OC(F)(F)O3)CC1 (racemic) [Example 195, rac-(2R,4S)-4-({[1-(2,2-difluoro-1,3-benzodioxol-5-yl)cyclopropyl]carbonyl}amino)-7-methoxy-N-methyl-N-(oxetan-3-yl)-3,4-dihydro-2H-chromene-2-carboxamide]
1240	67	COc1ccc2c(c1)O[C@@H](C(=O)N1CCOCC1)C[C@@H]2NC(=O)C1(c2ccc3c(c2)OC(F)(F)O3)CC1 (racemic) [Example 196, rac-1-(2,2-difluoro-1,3-benzodioxol-5-yl)-N-[(2R,4S)-7-methoxy-2-(morpholin-4-ylcarbonyl)-3,4-dihydro-2H-chromen-4-yl]cyclopropanecarboxamide]
2100	73	COc1ccc2c(c1)O[C@@H](C(=O)NC(CO)c1ccccc1OC)C[C@@H]2NC(=O)C1(c2ccc3c(c2)OC(F)(F)O3)CC1 (mixture of isomers) [Example 197, rac-(2R,4S)-4-({[1-(2,2-difluoro-1,3-benzodioxol-5-yl)cyclopropyl]carbonyl}amino)-N-[2-hydroxy-1-(2-methoxyphenyl)ethyl]-7-methoxy-3,4-dihydro-2H-chromene-2-carboxamide]
2350	61	COc1ccc2c(c1)O[C@@H](C(=O)NC1c3ccccc3CC1O)C[C@@H]2NC(=O)C1(c2ccc3c(c2)OC(F)(F)O3)CC1 (mixture of isomers) [Example 200, rac-(2R,4S)-4-({[1-(2,2-difluoro-1,3-benzodioxol-5-yl)cyclopropyl]carbonyl}amino)-N-(2-hydroxy-2,3-dihydro-1H-inden-1-yl)-7-methoxy-3,4-dihydro-2H-chromene-2-carboxamide]
3050	54	CCOC(=O)c1csc([C@H]2C[C@H](NC(=O)C3(c4ccc5c(c4)OC(F)(F)O5)CC3)c3ccccc3O2)n1 (relative stereo) [Example 141, ethyl rel-2-[(2R,4S)-4-({[1-(2,2-difluoro-1,3-benzodioxol-5-yl)cyclopropyl]carbonyl}amino)-3,4-dihydro-2H-chromen-2-yl]-1,3-thiazole-4-carboxylate]
> 20000	11	O=C(O)c1csc([C@H]2C[C@H](NC(=O)C3(c4ccc5c(c4)OC(F)(F)O5)CC3)c3ccccc3O2)n1 (relative stereo) [Example 144, rel-2-[(2R,4S)-4-({[1-(2,2-difluoro-1,3-benzodioxol-5-yl)cyclopropyl]carbonyl}amino)-3,4-dihydro-2H-chromen-2-yl]-1,3-thiazole-4-carboxylic acid]
